Laboratory results as given in patent EP1213282A1, “Substituted imidazolium salts and their use for the inhibition of protein ageing” (ALTEON Inc., priority 1996, dated 1997).
pIC50: −log10 of the molar value. Like-named read-outs stand apart in the source and are kept apart here.

Key:
[1] = target: T1, cross-linking of glycated bovine serum albumin (AGE-BSA) to the rat tail tendon collagen (Bos taurus, UniProt P02769); experiment: Inhibition of cross-linking of glycated BSA (AGE-BSA) to collagen-coated plate, ELISA (Example 4); assay type: biochemical; conditions: for inhibition at 10000 µM: 4 h
T1 construct: The AGE-BSA was prepared by incubating BSA at a concentration of 200 mg per ml with 200 mM glucose
Experimental: The following method was used to evaluate the ability of the compounds of the present invention to inhibit the cross-linking of glycated bovine serum albumin (AGE-BSA) to the rat tail tendon collagen coated 96-well plate.
The glycated BSA was then extensively dialyzed against phosphate buffer solution (PBS) for 48 hours with additional 5 times buffer exchanges. […] The blocking solution was removed from the wells by washing the plate twice with PAS-Tween 20 solution (0.05% Tween 20) using a NUNC-multiprobe or Dynatech ELISA-plate washer. […] The unbrowned BSA in PBS buffer with or without testing compound were added to the separate wells as the blanks. The uncross-linked AGE-BSA was then removed by washing the wells three times with PBS-Tween buffer. The cross-linked AGE-BSA to the tail tendon coated plate was then quantitated by the polyclonal antibody raised against AGE-RNase. After a one-hour incubation period, AGE antibody was removed by washing 4 times with PBS-Tween.
The bound AGE antibody was then detected with the addition of horseradish peroxidase-conjugated secondary antibody, e.g., goat anti-rabbit immunoglobulin and incubation for 30 minutes. […] The reaction was allowed for an additional 15 minutes and the absorbance was read at 410 nm in a Dynatech plate reader.

[2] = target: T2, AGE-BSA previously crosslinked to the collagen (Bos taurus, UniProt P02769); experiment: AGE cross-link breaking sandwich enzyme immunoassay (Example 6); assay type: biochemical; conditions: 10 mM, 16 hours, 37°C
T2 construct: purchased Calbiochem (BSA Type V); Collaborative Biomedical Products (Biocoat collagen plates)
Experimental: In order to ascertain the ability of the compounds of the instant invention to "break" or reverse already formed advanced glycosylation endproducts, a novel sandwich enzyme immunoassay was developed which detects breaking of AGE (Advanced glycosylation endproduct) moieties from AGE-crosslinked protein. The assay utilizes collagen-coated 96 well microtiter plates that are obtained commercially. AGE-modified protein (AGE-BSA), prepared, for instance, as in Example 8, above, is incubated on the collagen-coated wells for four hours, is washed off the wells with PBS-Tween and solutions of the test compounds are added. Following an incubation period of 16 hours (37°C) cross-link-breaking is detected using an antibody raised against AGE-ribonuclease or with an antibody against BSA. Positive results in this assay indicate compounds that are capable of reducing the amount of AGE-BSA previously crosslinked to the collagen by breaking the crosslinks and allowing the liberated material to be flushed away in subsequent washing steps. Details of the assay are as follows:
• 1. AGE-BSA stock solutions were prepared as follows. Sodium phosphate buffer (0.4 M) was prepared by dissolving 6 grams of monobasic sodium phosphate in 100 ml of distilled water, 7 grams of dibasic sodium phosphate (0.4 M) in 100 ml of distilled water and adjusting the pH of the dibasic solution to 7.4 with the monobasic solution. Sodium azide (0.02 grams) was added per 100 ml volume to inhibit bacterial growth. The BSA solution was prepared as follows: 400 mg of Type V BSA (bovine serum albumin) was added for each ml of sodium phosphate buffer (above). A 400 mM glucose solution was prepared by dissolving 7.2 grams of dextrose in 100 ml of sodium phosphate buffer (above). The BSA and glucose solutions were mixed 1:1 and incubated at 37°C for 12 weeks. The pH of the incubation mixture was monitored weekly and adjusted to pH 7.4 if necessary. After 12 weeks, the AGE-BSA solution was dialyzed against PBS for 48 hours with four buffer changes, each at a 1:500 ratio of solution to dialysis buffer. Protein concentration was determined by the micro-Lowry method. The AGE-BSA stock solution was aliquoted and stored at -20°C. Dilute solutions of AGE-BSA were unstable when stored at -20°C. • 2. Working solutions for crosslinking and breaking studies were prepared as follows. Test compounds were dissolved in PBS and the pH was adjusted to pH 7.4 if necessary. AGE-BSA stock solution was diluted in PBS to measure maximum crosslinking. The concentration of AGE-BSA necessary to achieve the optimum sensitivity was determined by initial titration of each lot of AGE-BSA. • 3. Wash buffer ("PBS-Tween") was prepared as follows. PBS was prepared by dissolving the following salts in one liter of distilled water: NaCl, 8 grams; KCl, 0.2 gram, KH2PO4. 1.15 grams; NaN3, 0.2 gram. Tween-20 was added to a final concentration of 0.05% (vol/vol). • 4. Substrates for detection of secondary antibody binding were prepared by diluting the HRP substrate buffer 1:10 in distilled water and mixing with ABTS chromogen 1:50 just prior to use.
• 1. Biocoat plates were blocked with 300 µl of "Superbloc". Plates were blocked for one hour at room temperature and were washed with PBS-Tween three times with the Dynatech platewasher before addition of test reagents. • 2. Each experiment was set up in the following manner. The first three wells of the Biocoat plate were used for the reagent blank. Fifty microliters of solutions AGE-BSA were added to test wells in triplicate and only PBS in blank wells. The plate was incubated at 37°C for four hours and washed with PBS-Tween three times. Fifty microliters of PBS was added to the control wells and 50 µl of the test "AGE Cross-link breaker" compound was added to the test wells and blank. The plate was incubated overnight (approximately 16 hours) with the test "AGE Cross-link breaker" compound, followed by washing in PBS-Tween before addition of primary antibody (below). • 3. […]

[3] = Inhibition of ribose-induced cross-linking of N-acetyl glycyl-lysine methyl ester, fluorescence (Example 5); assay type: biochemical; conditions: 37°C, 16-24 hours, pH 7.4; fluorescence 350/400 nm
Experimental: Materials: • N-acetylglycyllysine methyl ester (DP in formula below) • Ribose (R in formula below) • Test compounds (C in formula below)
Reagents: • 0.5 M sodium phosphate buffer pH 7.4 • N-acetylglycyllysine methyl ester in 0.5M sodium phosphate buffer, pH 7.4 Ribose: 800 mM
Test compounds dissolved in the above buffer and the pH is adjusted to 7.4, if necessary
Reaction mixtures are prepared as follows:
and incubated at 37°C for 16-24 hours. At the end of the incubation period, the fluorescence is read using an excitation wavelength of 350 nm and emission wavelength of 400 nm. The inhibition of the cross-linking is calculated from the decrease in the fluorescence in the presence of the test compounds according to the formula: […] [formula]
The Inhibition by various test compounds (IC50) is as follows: […]

[4] = system: fixed protein (gelatin. i.e., collagen) surface; experiment: Surface browning experiment on gelatin/paper disks (Example 10); conditions: 100 Mm glucose-6-phosphate, one week at 50°C; Peridex at final 0.04% chlorhexidine
Experimental: To further study the ability of inhibitors of nonenzymatic browning to prevent the discoloration of protein on a surface, such as that which occurs on the tooth surface, the following surface browning experiment is performed. As a substitute for a pellicle-covered tooth surface. unexposed and developed photographic paper is used to provide a fixed protein (gelatin. i.e., collagen) surface on a paper backing. Five millimeter circles are punched and immersed for one week at 50°C in a solution of 100 Mm glucose-6-phosphate in a 0.5 M phosphate buffer, pH 7.4, containing 3 Mm sodium azide. Glucose-6-phosphate is a sugar capable of participating in nonenzymatic browning at a more rapid rate than glucose. In addition to the glucose-6-phosphate, chlorhexidine and/or a compound of Formula I are included. After incubation, the gelatin/paper disks are rinsed with water, observed for brown color, and photographed.

[5] = pH 7.4, at 10 mM, 37°C, 4 hours, pH 7.4, read-out: %Inh.
[6] = primary antibody anti-AGE-RNase, read-out: %breaking allowed, Pr AbαAGE
[7] = primary antibody anti-BSA, read-out: %breaking allowed, PrAbαBSA

T1 sequence (P02769 25-607): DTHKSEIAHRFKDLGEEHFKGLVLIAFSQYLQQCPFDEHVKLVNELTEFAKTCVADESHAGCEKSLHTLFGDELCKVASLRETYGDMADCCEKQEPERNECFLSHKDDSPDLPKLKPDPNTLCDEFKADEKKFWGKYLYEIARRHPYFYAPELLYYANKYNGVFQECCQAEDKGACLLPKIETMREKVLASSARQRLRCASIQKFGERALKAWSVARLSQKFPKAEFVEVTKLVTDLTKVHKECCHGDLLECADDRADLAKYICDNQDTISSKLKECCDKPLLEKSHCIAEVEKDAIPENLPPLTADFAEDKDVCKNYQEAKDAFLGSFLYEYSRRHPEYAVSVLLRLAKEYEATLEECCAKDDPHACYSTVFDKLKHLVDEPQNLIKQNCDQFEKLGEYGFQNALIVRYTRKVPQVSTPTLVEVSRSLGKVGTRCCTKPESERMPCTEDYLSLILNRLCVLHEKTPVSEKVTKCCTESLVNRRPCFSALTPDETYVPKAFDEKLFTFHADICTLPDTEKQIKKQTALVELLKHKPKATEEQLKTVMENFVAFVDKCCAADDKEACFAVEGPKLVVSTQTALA
T2 sequence (P02769 25-607): as above
T2 sequence (P02454 152-1207 partner limits assumed): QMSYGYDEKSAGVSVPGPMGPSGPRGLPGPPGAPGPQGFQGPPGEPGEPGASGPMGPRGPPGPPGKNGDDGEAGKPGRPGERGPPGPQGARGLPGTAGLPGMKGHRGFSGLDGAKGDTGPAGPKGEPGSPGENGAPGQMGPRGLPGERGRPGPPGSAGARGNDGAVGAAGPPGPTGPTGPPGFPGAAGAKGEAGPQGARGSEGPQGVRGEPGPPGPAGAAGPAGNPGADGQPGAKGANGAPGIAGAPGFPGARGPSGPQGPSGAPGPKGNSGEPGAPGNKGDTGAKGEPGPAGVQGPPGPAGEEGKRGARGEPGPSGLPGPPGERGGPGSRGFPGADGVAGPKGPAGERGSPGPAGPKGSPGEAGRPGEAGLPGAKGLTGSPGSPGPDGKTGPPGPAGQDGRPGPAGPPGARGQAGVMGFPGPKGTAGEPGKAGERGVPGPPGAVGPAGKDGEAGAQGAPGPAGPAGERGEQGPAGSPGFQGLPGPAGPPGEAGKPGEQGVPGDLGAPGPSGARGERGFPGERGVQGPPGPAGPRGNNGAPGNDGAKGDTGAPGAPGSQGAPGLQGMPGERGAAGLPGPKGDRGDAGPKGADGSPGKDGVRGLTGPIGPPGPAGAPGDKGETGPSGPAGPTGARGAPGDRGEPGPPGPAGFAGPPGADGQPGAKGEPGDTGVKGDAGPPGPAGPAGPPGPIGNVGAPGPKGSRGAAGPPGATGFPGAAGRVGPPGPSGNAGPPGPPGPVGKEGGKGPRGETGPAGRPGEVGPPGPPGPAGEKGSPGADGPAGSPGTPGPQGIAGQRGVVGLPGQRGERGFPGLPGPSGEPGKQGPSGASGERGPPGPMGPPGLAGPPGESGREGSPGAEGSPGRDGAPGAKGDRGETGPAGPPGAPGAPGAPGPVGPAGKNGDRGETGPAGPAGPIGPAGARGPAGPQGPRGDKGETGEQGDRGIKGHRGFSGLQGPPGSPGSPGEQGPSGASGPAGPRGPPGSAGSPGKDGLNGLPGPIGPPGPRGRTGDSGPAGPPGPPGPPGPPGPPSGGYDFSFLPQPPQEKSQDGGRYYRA
T2 sequence (P02466 86-1125 partner limits assumed): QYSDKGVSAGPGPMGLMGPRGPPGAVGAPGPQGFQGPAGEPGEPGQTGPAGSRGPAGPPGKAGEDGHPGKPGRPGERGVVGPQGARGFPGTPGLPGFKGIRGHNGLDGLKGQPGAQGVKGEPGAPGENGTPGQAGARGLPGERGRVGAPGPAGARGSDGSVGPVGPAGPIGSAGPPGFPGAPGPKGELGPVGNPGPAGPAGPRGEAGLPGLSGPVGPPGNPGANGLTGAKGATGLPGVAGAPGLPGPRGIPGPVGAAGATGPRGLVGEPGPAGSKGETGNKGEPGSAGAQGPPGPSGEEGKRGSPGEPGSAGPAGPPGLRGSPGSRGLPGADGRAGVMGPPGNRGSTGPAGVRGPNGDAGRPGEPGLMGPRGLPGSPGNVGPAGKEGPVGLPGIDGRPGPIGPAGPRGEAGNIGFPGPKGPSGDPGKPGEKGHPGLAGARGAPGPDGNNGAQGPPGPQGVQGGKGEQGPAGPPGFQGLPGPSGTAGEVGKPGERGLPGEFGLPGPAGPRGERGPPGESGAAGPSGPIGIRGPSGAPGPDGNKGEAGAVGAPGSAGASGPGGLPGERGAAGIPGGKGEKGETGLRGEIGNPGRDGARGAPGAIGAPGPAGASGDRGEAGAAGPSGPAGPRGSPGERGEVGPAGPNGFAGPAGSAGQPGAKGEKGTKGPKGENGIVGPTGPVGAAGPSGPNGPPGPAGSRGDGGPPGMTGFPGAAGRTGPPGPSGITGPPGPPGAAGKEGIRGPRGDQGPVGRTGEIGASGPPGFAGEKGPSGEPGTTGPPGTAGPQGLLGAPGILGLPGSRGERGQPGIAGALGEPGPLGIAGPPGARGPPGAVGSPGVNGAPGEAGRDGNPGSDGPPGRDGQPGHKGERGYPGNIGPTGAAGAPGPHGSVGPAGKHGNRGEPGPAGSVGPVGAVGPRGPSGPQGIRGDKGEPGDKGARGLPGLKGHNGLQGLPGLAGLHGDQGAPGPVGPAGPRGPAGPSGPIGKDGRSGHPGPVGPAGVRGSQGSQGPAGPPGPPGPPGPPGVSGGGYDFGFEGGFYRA

| inhibition at 10000 µM [2, 6] [%] | inhibition at 10000 µM [2, 7] [%] | Structure (SMILES) | inhibition at 10000 µM [1, 5] [%] | also measured |
| --- | --- | --- | --- | --- |
| – | – | CCOC(=O)CCCCCn1cc[n+](CC(=O)c2ccc(C)cc2)c1 [1-(ethoxycarbonylpentyl)-3-[2-(4'-methylphenyl)-2-oxoethyl]-imidazolium bromide] | 33 | – |
| – | – | Cn1cc[n+](CC(=O)c2ccc(Br)cc2)c1 [1-methyl-3-[2-(4'-bromophenyl)-2-oxoethyl]-imidazolium bromide] | – | inhibition at 10000 µM ([1]; pH 7.4, read-out: %Inh.): 23% |
| 38 | 27 | COc1ccc(C(=O)C[n+]2ccn(C)c2)cc1 [1-methyl-3-[2-(4'-methoxyphenyl)-2-oxoethyl]-imidazolium bromide] | – | – |
| – | – | CCOC(=O)CCCCCn1cc[n+](CC(=O)c2cccc(OC)c2)c1 [1-(ethoxycarbonylpentyl)-3-[2-(3'-methoxyphenyl)-2-oxoethyl]-imidazolium bromide] | 40 | – |
| 20 | 24 | COc1cccc(C(=O)C[n+]2ccn(C)c2)c1 [1-methyl-3-[2-(3'-methoxyphenyl)-2-oxoethyl]-imidazolium bromide] | – | – |
| 32 | 28 | CCN(CC)c1ccc(C(=O)C[n+]2ccn(C)c2)cc1 [1-Methyl-3-[2-(4'-diethylaminophenyl)-2-oxo-ethyl]-imidazolium bromide] | – | pIC50 [3]: 3.28 |
| – | – | CCOC(=O)CCCCCn1cc[n+](CC(=O)c2ccc(OC)cc2)c1 [1-(ethoxycarbonylpentyl)-3-[2-(4'-methoxyphenyl)-2-oxoethyl]-imidazolium bromide] | 23 | %Inh. ([1]; at 10 mM, 37°C, 4 hours, pH 7.4, 240 min, 10000 µM): 40% |
| – | – | [H]/N=C(\N/C(=N/[H])NCCCCCCNC(=N)NC(=N)Nc1ccc(Cl)cc1)Nc1ccc(Cl)cc1 [chlorhexidine] | – | brown color of gelatin/paper disks [4]: significant browning |
| – | – | Cn1cc[n+](CC(=O)c2ccc(F)cc2)c1 [1-methyl-3-[2-(4'-fluorophenyl)-2-oxoethyl]-imidazolium bromide] | 29 | – |
